Assay results published in patent US20220251124A1, “3,5-BIS(PHENYL)-1H-HETEROARYL DERIVATIVES AS MEDICAMENTS” (INSTITUTE OF BIOTECHNOLOGY CAS, V.V.I., priority 2019, published 2022).
Where two headings read alike, the source gives them in different places.

Legend:
Format in all cases: cell-based
UPF1H leukemia cell line = experiment: alamarBlue Cell Viability Reagent, 48 hrs; conditions: 48 hrs
Procedure: (§1) Compound 1 and a comparative compound deferasirox (DFX) were tested in their efficacy to kill/suppress proliferation of several leukemia cells. Briefly, 10.000 cells per well were seeded in a 96-well plate on one day and the next day the tested compounds were added and incubated with the cells for 48 hrs. Cellular viability was determined as the ability to reduce the probe alamarBlue™ Cell Viability Reagent.

UPF9T leukemia cell line = experiment: alamarBlue Cell Viability Reagent, 48 hrs; conditions: 48 hrs, UPF9T
Procedure: as §1

[1] = tested on: UPF16A leukemia cell line; experiment: alamarBlue Cell Viability Reagent, 48 hrs; conditions: 48 hrs, UPF16A
Procedure: as §1

non malignant cells MRC5 = experiment: annexin V/PI staining, cell death induction, 48 hrs; conditions: 500 μM
Procedure: (§2) This effect seems to be based mainly on the cytostatic effect of compound 1. To define the ability to kill cells, cell death-inducing potency (cytotoxic efficacy) of DFX and compound 1 have been tested via annexin V/PI staining commonly used as a measure of apoptotic/necrotic cell death. Briefly, cells were seeded in 12-well plate at 100,000 per well, incubated with the selected compounds for 48 hours, then floating cells were spun, adherent cells trypsinized and spun as well followed by the staining with AnnexinV-FITC and PI probes. Cells were then washed with PBS and measured via Fluorescence Activated Sorter.

OVCAR = experiment: as above; conditions: 500 μM
Procedure: as §2

BxPC3 [2] = experiment: as above; conditions: 500 μM
Procedure: as §2

non-malignant HFP1 cells = experiment: as above; conditions: 500 μM, 48 hrs, HFP1
Procedure: as §2

[3] = tested on: tamoxifen resistant MCF7 (Tam5R); experiment: crystal violet assay, tamoxifen resistant cells; conditions: MCF7 Tam5R grown in the presence of 5 μM tamoxifen
Procedure: (§3) Compound 1 and a comparative compound deferasirox (DFX) were tested in their efficacy to kill/suppress proliferation of malignant breast cancer MCF7 cells representing estrogen-dependent type of breast cancer. Briefly, 10.000 cells per well were seeded in a 96-well plate on one day and the next day the tested compounds were added and incubated with the cells for 48 hrs. The cells were then fixed with 4% paraformaldehyde, stained with 0.05% crystal violet, washed with PBS, and solubilized in 1% SDS. The absorbance of the plate at 595 nm was then measured, quantifying the number of viable cells.
(§4) To test whether compound 1 is active against resistant cancer cells, we used tamoxifen-resistant MCF7, T47D. The IC50 values were again measured with the crystal violet assay performed as in example 12. We have documented that there is a significant difference in the ability of compound 1 to induce cytostatic and cytotoxic effects between the parental cells sensitive to tamoxifen and the resistant ones that grow even in the presence of tamoxifen (Table 11), yet the IC50 values are still in the nM range, making this compound very efficient.

[4] = tested on: tamoxifen resistant T47D (Tam5R); experiment: crystal violet assay, tamoxifen resistant cells; conditions: Homo sapiens, T47D Tam5R grown in the presence of 5 μM tamoxifen
Procedure: as §3, §4

OVCAR3 = experiment: crystal violet assay, cellular viability, 48 hrs; conditions: Homo sapiens, OVCAR-3
Procedure: as §3
(§5) Compounds 1, 2 and the comparative compound deferasirox were tested in their efficacy to suppress proliferation/kill several malignant cell lines of breast, pancreatic and ovarian origin (MCF7, MDA-MB-231, BxPC3 and OVCAR3). The procedure is identical to that in example 12.

T47D = experiment: crystal violet assay, cellular viability, 48 hrs; conditions: T47D (parental/control)
Procedure: [The source words this procedure for another cell line and reports this cell line under the same test.] as §3, §5

BxPC3 [5] = experiment: crystal violet assay, cellular viability, 48 hrs; conditions: Homo sapiens, BXPC-3
Procedure: as §3, §5

[6] = tested on: non-malignant fibroblasts (HFP1); experiment: crystal violet assay, cellular viability, 48 hrs; conditions: Fibroblast
Procedure: [The source words this procedure for another cell line and reports this cell line under the same test.] as §3, §5

MDA-MB-231 cells = experiment: crystal violet assay, cellular viability, 48 hrs; conditions: for IC50: MDA-MB-231, crystal violet, read-out: IC50
Procedure: as §3
Compound 1 and the comparative compound deferasirox were tested in their efficacy to kill/suppress proliferation of malignant MDA-MB-231 cancer cells representing hard to treat triple negative breast cancer. The procedure is identical to that in example 12.

MCF7 = experiment: annexin V/PI staining, cell death induction, 48 hrs; conditions: 500 μM
Procedure: as §2
Since compound 1 is an iron chelator, we have evaluated the effect of pre-loading compound 1 with iron at a 2:1 ratio and then applying it to the cells, followed by measurement of cell death using the Annexin V/PI staining as in example 4.

MCF7 cells = experiment: crystal violet assay, cellular viability (cytostatic and cytotoxic effect), 48 hrs; conditions: for IC50: MCF7 (parental/control), crystal violet, read-out: IC50
Procedure: as §3

leukemia cells = experiment: alamarBlue viability, leukemia cells overall; conditions: several leukemia cells, 48 hrs; read-out: IC50 (suppression of proliferation to 50%)
Procedure: as §1

[7] = 1 μM, read-out: viable cells compared to non-treated controls
[8] = 3 μM, read-out: viable cells compared to non-treated controls
[9] = 30 μM, read-out: viable cells compared to non-treated controls
[10] = 100 μM, read-out: viable cells compared to non-treated controls
[11] = 500 μM, read-out: viable cells compared to non-treated controls

- IC50 (UPF1H leukemia cell line; alamarBlue, read-out: IC50): 9.6 µM
- IC50 (UPF9T leukemia cell line; alamarBlue, read-out: IC50): 80.2 µM
- IC50 ([1]; alamarBlue, read-out: IC50): 7.6 µM
- IC50 [3]: 15 µM
- IC50 [4]: 82.6 µM
- IC50 (OVCAR3): 19.2 µM
- IC50 (BxPC3 [5]): 22.9 µM
- IC50 (MDA-MB-231 cells; Homo sapiens, MDA-MB-231, 48 h): 70 µM
- IC50 (MDA-MB-231 cells): 70 µM
- IC50 (leukemia cells): 5 to 80 µM
Compound: O=C(O)c1ccc(-n2nc(-c3ccccc3O)nc2-c2ccccc2O)cc1 [DFX, deferasirox, reference compound]
- viability at 1 µM (UPF1H leukemia cell line; [7]): 94.3%
- viability at 3 µM (UPF1H leukemia cell line; [8]): 88%
- viability at 30 µM (UPF1H leukemia cell line; [9]): 7.3%
- viability at 100 µM (UPF1H leukemia cell line; [10]): 13.3%
- viability at 500 µM (UPF1H leukemia cell line; [11]): 22.4%
- viability at 1 µM (UPF9T leukemia cell line; [7]): 90.8%
- viability at 3 µM (UPF9T leukemia cell line; [8]): 81.3%
- viability at 30 µM (UPF9T leukemia cell line; [9]): 49.2%
- viability at 100 µM (UPF9T leukemia cell line; [10]): 53.3%
- viability at 500 µM (UPF9T leukemia cell line; [11]): 39%
- viability at 1 µM [1, 7]: 82.5%
- viability at 3 µM [1, 8]: 61.3%
- viability at 30 µM [1, 9]: 34.7%
- viability at 100 µM [1, 10]: 10.6%
- viability at 500 µM [1, 11]: 9.7%
- dead cells (AnnexinV/PI) (non malignant cells MRC5): 43.7 (7.7) %
- dead cells (AnnexinV/PI) (OVCAR): 59.7 (4.6) %
- dead cells (AnnexinV/PI) (BxPC3 [2]): 45.8 (21.3) %
- dead cells (AnnexinV/PI) (non-malignant HFP1 cells): 35.6 (1.5) %
- IC50 (T47D; Homo sapiens, T47D, 48 h): 60.8 µM
- IC50 (T47D): 60.8 µM
- IC50 [6]: 37.9 µM
- viability at 1 µM (MDA-MB-231 cells; Homo sapiens, 1 μM, MDA-MB-231, read-out: viable cells compared to non-treated controls): 109%
- viability at 3 µM (MDA-MB-231 cells; Homo sapiens, 3 μM, MDA-MB-231, read-out: viable cells compared to non-treated controls): 90.8%
- viability at 10 µM (MDA-MB-231 cells; Homo sapiens, 10 μM, MDA-MB-231, read-out: viable cells compared to non-treated controls): 70.4%
- viability at 30 µM (MDA-MB-231 cells; Homo sapiens, 30 μM, MDA-MB-231, read-out: viable cells compared to non-treated controls): 62.1%
- viability at 100 µM (MDA-MB-231 cells; Homo sapiens, 100 μM, MDA-MB-231, read-out: viable cells compared to non-treated controls): 55.7%
- viability at 300 µM (MDA-MB-231 cells; Homo sapiens, 300 μM, MDA-MB-231, read-out: viable cells compared to non-treated controls): 14.1%
- dead cells (AnnexinV/PI) (MCF7): 85.2 (3.3) %
- viability at 1 µM (MCF7 cells; Homo sapiens, 1 μM, MCF7, read-out: viable cells compared to non-treated controls): 104%
- viability at 3 µM (MCF7 cells; Homo sapiens, 3 μM, MCF7, read-out: viable cells compared to non-treated controls): 76%
- viability at 10 µM (MCF7 cells; Homo sapiens, 10 μM, MCF7, read-out: viable cells compared to non-treated controls): 56.5%
- viability at 30 µM (MCF7 cells; Homo sapiens, 30 μM, MCF7, read-out: viable cells compared to non-treated controls): 23.9%
- IC50 (MCF7 cells; Homo sapiens, MCF7, 48 h): 10 µM
- IC50 (MCF7 cells): 10.9 µM
